Results published in publication PMC10645073, “Interaction of gallium, indium and vanadyl diacetylcurcumin complexes with lysozyme: mechanistic aspects and evaluation of antiamyloidogenic activity” (Royal Society Open Science, 2023).

Assays:
[1] = biological target: T1, hen egg white lysozyme (HEWL) (Gallus gallus, UniProt P00698); experiment: Förster resonance energy transfer (FRET) binding distance, HEWL donor / metal complex acceptor
T1 construct: whose 129 amino acid residues are linked together by four disulfide bridges to form a single polypeptide chain; purchased Sigma-Aldrich L6876; host or cells: hen egg white (natural source, per the protein's name)
From the text: Förster resonance energy transfer (FRET) is a sensitive fluorescence-based approach that acts as a spectroscopic ruler to determine the binding distances within 1–10 nm between interacting molecules. Owing to the good overlap between the emission fluorescence spectrum of HEWL, as donor molecule, and the absorption spectra of three metal complexes of diacetylcurcumin, as acceptor molecules (electronic supplementary material, figure S4), the FRET method was used to obtain distance-dependent information of the donor-acceptor pairs. According to Förster's non-radiative energy transfer theory, the value of energy transfer efficiency, E, can be measured using the following equation:3.5 E=1−F/F0=R06/R06+r^6, where R0 and r represent the critical energy transfer distance and distance between donor and acceptor, respectively. The R0 parameter, the distance for 50% energy transfer, can be also calculated by the following equation:3.6 R06=8.79 × 10^−25[K^2n^−4ϕJ(λ)],
where K^2 is the relative orientation of the donor and acceptor (equal to 2/3 for a random orientation), n denotes the average refractive index of the medium (equal to 1.33), and φ represents the fluorescence quantum yield of the donor (equal to 0.15). […] Therefore, it can be concluded that a non-radiative energy transfer process contributes to the fluorescence quenching of HEWL by the metal complexes of diacetylcurcumin. […]

[2] = biological target: T1, hen egg white lysozyme (HEWL); experiment: Synchronous fluorescence spectroscopy of HEWL; assay type: binding; settings: Δλ = 60 nm
Protocol: To obtain synchronous fluorescence spectra, simultaneous scanning of excitation and emission monochromators was performed in such a way as to maintain a constant wavelength interval between them. The changes in the molecular microenvironment of tyrosine and tryptophan residues of HEWL were monitored by fixing the wavelength interval (Δλ = λem − λex) individually at 15 and 60 nm, respectively. The concentrations of HEWL and three metal complexes of diacetylcurcumin were the same as those mentioned for the intrinsic fluorescence spectroscopy.
To investigate the effect of the metal complexes of diacetylcurcumin on the conformation of tyrosine and tryptophan residues of HEWL, synchronous fluorescence spectra of HEWL were recorded alone and in the presence of the metal complexes (electronic supplementary material, figure S5). By fixing the Δλ value, i.e. the difference between excitation and emission wavelengths, at 15 and 60 nm, synchronous fluorescence spectroscopy provides useful information on the microenvironmental changes of tyrosine and tryptophan residues of proteins, respectively. As shown in the electronic supplementary material, figure S5, all three metal complexes of diacetylcurcumin strongly quench the emission fluorescence of HEWL at both 15 and 60 nm. […] At Δλ = 15 nm, no shift in the emission maximum of HEWL is observed, whereas at Δλ = 60 nm, a 2 nm blue shift is observed in the emission spectrum of tryptophan residues of the protein after the interaction with the metal complexes of diacetylcurcumin except for the VO(DAC)2 complex. […] Overall, it can be concluded that the formation of HEWL/metal complex bioconjugates is associated with the binding of three metal complexes of diacetylcurcumin to both tyrosine and tryptophan residues in which the conformational changes can occur only around the tryptophan residues of the protein. It should be noted that the reduction in the polarity of the microregions surrounding tryptophan residues of the protein has already been observed by the intrinsic emission fluorescence titrations (see §3.1.1.).

| binding distance r between donor and acceptor [1] | energy transfer value (E) [1] [%] | microenvironment of tryptophan residues of HEWL [2] | Structure (SMILES) |
| --- | --- | --- | --- |
| least value of the binding distance | 18 | more hydrophobic | COc1cc(C=CC(=O)C=C([O-])C=Cc2ccc(OC(C)=O)c(OC)c2)ccc1OC(C)=O.COc1cc(C=CC(=O)C=C([O-])C=Cc2ccc(OC(C)=O)c(OC)c2)ccc1OC(C)=O.COc1cc(C=CC(=O)C=C([O-])C=Cc2ccc(OC(C)=O)c(OC)c2)ccc1OC(C)=O.[In+3] [In(DAC)3, indium diacetylcurcumin] |
| – | – | remains unaffected | COc1cc(/C=C/C(=O)C=C([O-])/C=C/c2ccc(OC(C)=O)c(OC)c2)ccc1OC(C)=O.COc1cc(/C=C/C(=O)C=C([O-])/C=C/c2ccc(OC(C)=O)c(OC)c2)ccc1OC(C)=O.[O]=[V+2] [VO(DAC)2, vanadyl diacetylcurcumin] |
